The text below walks through data of PubChem BioAssay AID1963861 (Molecular Pharmacology Branch, DTP, NCI, 2024).

The viability, T/C is the result in the treated group divided by that in the control group, in per cent. The IC50 is the point on the concentration scale where inhibition reaches its midpoint.

The subject of this assay is 885724-159-R-J1-PDC KRAS PDC multicell spheroid viability. In words: Anticancer human tumor 885724-159-R-J1-PDC patient-derived pancreatic adenocarcinoma cell line growth inhibition [KRAS2]. The settings on record: for viability, T/C: stronger effect = lower value. The source says:
Multicellular complex tumor spheroid response to RAS pathway inhibitors in combination with a targeted agents in patient-derived cell lines with oncogenic KRAS variants from multiple cancer types
A high-throughput screen of multi-cell type tumor spheroids was designed to identify active combinations of targeted small molecules and KRAS pathway inhibitors. Complex spheroids include a stromal component modeled by human endothelial cells (HUVEC) and fibroblasts modeled by human mesenchymal stem cells (MSCs). The concentration ranges selected for each drug and investigational agent were based upon clinically achievable concentrations if the clinical Cmax of the agent was known.
Compounds. The drugs and investigational agents: BI-3406 (NSC825286), BAY-293 (NSC824723), batoprotafib (TNO155; NSC825523), sotorasib (AMG 510; NSC818433), MRTX1257 (NSC819558), elimusertib (BAY 1895344; NSC800525), molibresib (GSK525762; NSC774829), temuterkib (LY3214996; NSC803410), venetoclax (NSC766270), alisertib (NSC759677), olaparib (NSC753686), talazoparib (NSC767125), erdafitinib (NSC781556), ipatasertib (NSC767898), cabozantinib (NSC761068), nintedanib (NSC756659), abemaciclib (NSC768073), docetaxel (NSC628503), trametinib (NSC758246), and sapanisertib (NSC764658) were obtained from the National Cancer Institute (NCI) Developmental Therapeutics Program Chemical Repository. The FDA-approved anticancer drug set is available from the Developmental Therapeutics Program. […] The stock solutions were prepared in dimethyl sulfoxide (DMSO, Sigma-Aldrich, St. Louis, MO, cat. D2650) at 800-fold the tested concentration and stored at -70 degrees C prior to their use. All drugs and investigational agents were tested over a range starting from a high concentration at or near the clinical Cmax and decreasing in half-log increments. If the clinical Cmax for an agent had not been determined, the highest concentration tested was 10 microM.
Cell Culture. All cells were maintained in an incubator at 37 degrees C and 5% CO2 with 95% humidity. The PDC lines were cultured according to standard operating procedures established by the NCI PDMR (https://pdmr.cancer.gov/sops/default.htm). Briefly, all PDCs were thawed and cultured in Matrigel-coated flasks prepared with a working solution of 1X Ham's F-12 nutrient mix, without supplementation (Invitrogen, Waltham, MA, cat. 11765054), 100 U/mL penicillin-streptomycin (Invitrogen, cat. 15140122), and 2.5% Matrigel (Corning Inc., Corning, NY, cat. 354248) for the first three passages. All PDCs were cultured in complete DMEM/F-12 media containing advanced DMEM/F-12 (Invitrogen, cat. 12634028), 4.9% defined fetal bovine serum, heat inactivated (HyClone Laboratories Inc., Logan, UT, cat. SH30070.03HI), 389 ng/mL hydrocortisone (Sigma-Aldrich, cat. H4001), 9.7 ng/mL human EGF recombinant protein (Invitrogen, cat. PHG0313), 23.4 microg/mL adenine (Sigma-Aldrich, cat. A2786), 97.3 U/mL penicillin-streptomycin (Invitrogen, cat. 15140122), 1.9 mM L-glutamine (Invitrogen, cat. 25030081), and 9.7 microM Y-27632 dihydrochloride (Tocris Bioscience, Bristol, United Kingdom, cat. 1254). The PDCs were cultured in complete DMEM/F12 media without 9.7 microM Y-27632 dihydrochloride for at least two passages prior to the screen. The established cell line HOP-62 was cultured in RPMI 1640 medium, HEPES (Invitrogen, cat. 22400105) with 10% defined fetal bovine serum (HyClone Laboratories Inc., cat. SH30070.03) and 2 mM L-glutamine (Invitrogen, cat. 25030081). The pooled donor HUVEC were cultured in endothelial cell growth medium 2 (PromoCell, Heidelberg, Germany, cat. C-22011) and the hMSC were cultured in mesenchymal stem cell growth medium 2 (PromoCell, cat. C-28009). For all experiments, HUVEC and hMSC were used at passages </=5, while the malignant cell lines were used at passages </=15. […]

Where [1] appears, read: compound alone, run of 08/19/2021.
The mark [2] stands for this setting: compound alone, run of 08/26/2021.
Where [3] appears, read: compound alone, run of 09/02/2021.

Where “and” joins values, the source holds several entries; their conditions need not be identical. Equal entries are not always repeated.
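Also: spheroids exposed to agents for 7 days before readout.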

Consider `C=CC(=O)N1CCN(c2nc(OCC3CCCN3C)nc3c2CCN(c2cccc4cccc(C)c24)C3)CC1CC#N` (configuration not stated), for which the viability, T/C reads like this: (compound 0.0316 µM) 103% [middle of 17 runs]; (compound 0.316 µM) 94.9% [middle of 17 runs]. Also, the IC50 is > 3.16 µM and 2.89 µM and 2.93 µM under setting [1]; > 3.16 µM and 3.06 µM under setting [2]; > 3.16 µM and 2.96 µM and 2.89 µM under setting [3].
As to `CC(=O)Nc1cccc(-n2c(=O)n(C3CC3)c(=O)c3c(Nc4ccc(I)cc4F)n(C)c(=O)c(C)c32)c1`, the viability, T/C reads like this: (compound 0.0001 µM) 89.6% [middle of 5 runs]; (compound 0.000316 µM) 68.2% [middle of 5 runs]; (compound 0.001 µM) 49.6% [middle of 5 runs]; (compound 0.00316 µM) 36.5% [middle of 5 runs]; (compound 0.01 µM) 25.7% [middle of 5 runs]; (compound 0.0316 µM) 18.6% [middle of 5 runs]. Under “curve of compound”, the half-inhibitory concentration (IC50) is 0.966 nM [middle of 5 runs].
For `CC(=O)OC12COC1CC(O)C1(C)C(=O)C(O)C3=C(C)C(OC(=O)C(O)C(NC(=O)OC(C)(C)C)c4ccccc4)CC(O)(C(OC(=O)c4ccccc4)C21)C3(C)C` (configuration not stated), the viability, T/C is 88.4% [middle of 5 runs] (compound 0.01 µM), 93.2% [middle of 5 runs] (compound 0.0316 µM), 102% [middle of 5 runs] (compound 0.1 µM) and 112% [middle of 5 runs] (compound 1 µM). The IC50 (curve of compound) is greater than 3.16 µM.
As for `CC(C)n1nc(-c2ccc3oc(N)nc3c2)c2c(N)ncnc21`, the viability, T/C by setting is: (compound 0.000316 µM) 95.6% [middle of 5 runs]; (compound 0.001 µM) 74.4% [middle of 5 runs]; (compound 0.00316 µM) 65.9% [middle of 5 runs]; (compound 0.01 µM) 61.9% [middle of 5 runs]; (compound 0.0316 µM) 51% [middle of 5 runs]; (compound 0.1 µM) 46.5% [middle of 5 runs].
As for `CC1COCCN1c1cc(-c2ccnn2C)c2ccnc(-c3ccn[nH]3)c2n1` (configuration not stated), the viability, T/C reads like this: (compound 0.01 µM) 107% [middle of 5 runs]; (compound 0.0316 µM) 90.6% [middle of 5 runs]; (compound 0.1 µM) 69.9% [middle of 5 runs]; (compound 0.316 µM) 62.3% [middle of 5 runs]; (compound 1 µM) 56.6% [middle of 5 runs]; (compound 3.16 µM) 58.2% [middle of 5 runs]. Where the note is “curve of compound”, the IC50 was greater than 3.16 µM.
With `CC1OCC2(CCN(c3cnc(Sc4ccnc(N)c4Cl)c(N)n3)CC2)C1N` (configuration not stated), the viability, T/C was 99.7% and 101% and 102% (compound 0.0316 µM); 92.4% [middle of 19 runs] (compound 0.1 µM); 71.4% [middle of 20 runs] (compound 3.16 µM). Moreover, the concentration for half-maximal inhibition (IC50) was greater than 10 µM under setting [1], greater than 10 µM under setting [2], greater than 10 µM under setting [3] and greater than 10 µM (curve of compound).
Consider `CCN1CCN(Cc2ccc(Nc3ncc(F)c(-c4cc(F)c5nc(C)n(C(C)C)c5c4)n3)nc2)CC1`, for which the viability, T/C was 108% (2×) and 101% and 103% (2×) (compound 0.00316 µM); 100% [middle of 5 runs] (compound 0.01 µM); 89.9% [middle of 5 runs] (compound 0.0316 µM); 88.7% [middle of 5 runs] (compound 0.1 µM); 92.5% [middle of 5 runs] (compound 0.316 µM); 94% [middle of 5 runs] (compound 1 µM). Further, for the setting “curve of compound”, the IC50 is greater than 1 µM.
For `CN(C)C/C=C/C(=O)Nc1cc2c(Nc3ccc(F)c(Cl)c3)ncnc2cc1O[C@H]1CCOC1`, the viability, T/C was 107% [middle of 5 runs] (compound 0.000316 µM); 104% [middle of 5 runs] (compound 0.001 µM); 95.3% [middle of 5 runs] (compound 0.01 µM); 81.5% [middle of 5 runs] (compound 0.0316 µM); 77.5% [middle of 5 runs] (compound 0.1 µM). For the same compound, the IC50 (curve of compound) was greater than 0.1 µM.
Regarding `Cn1ncnc1[C@H]1c2n[nH]c(=O)c3cc(F)cc(c23)N[C@@H]1c1ccc(F)cc1`, the viability, T/C runs as follows: (compound 0.000316 µM) 102% [middle of 5 runs]; (compound 0.001 µM) 102% [middle of 5 runs]; (compound 0.00316 µM) 97.3% [middle of 5 runs]; (compound 0.01 µM) 98.2% [middle of 5 runs]; (compound 0.0316 µM) 96.2% [middle of 5 runs]; (compound 0.1 µM) 91% [middle of 5 runs]. The IC50 (curve of compound) was greater than 0.1 µM.
